The source of these data is US12410136B2, “Pyridinyl morpholine compound, preparation method therefor, and application thereof” (SHANGHAI ZHONGZE THERAPEUTICS, CO. LTD., priority 2020, dated 2025).

Read-outs that look alike come from different tables or passages of the source.

For data set [1], the target named is D2 receptor (Homo sapiens, UniProt P14416). Description: Dopamine D2 receptor binding test.
Procedure: Dopamine D2 Receptor Binding Test
In this experiment, HEK293 cells were transfected with plasmid vector containing D2 receptor protein gene, and calcium phosphate transfection method was used and after transfection, the cells were cultured in a culture solution containing G418, and the cell monoclonal and radioligand binding experiments were selected, and finally a stable cell line which could stably express D2 receptor protein was obtained.
HeK-293 cells were infected with recombinant viruses containing the above various genes respectively, and after 48-72 hours, the receptor proteins were expressed in large quantities on the membrane, and the cells were centrifuged at 1000 rpm for 5 min and then the culture solution was discarded, and the cells were collected, and stored in a −20° C. refrigerator for later use. Tris-HCl reaction buffer (pH=7.5) was used to resuspend in the experiment.
On the Millipore cell sample collector, the mixture was quickly filtrated under reduced pressure through GF/C glass fiber filter paper, and eluted with 3 mL of eluent (50 mMTris-HCl, pH 7.5) for 3 times, then dried under microwave for 5 to 6 min. The filter paper was moved into a 0.5 mL centrifuge tube, and 500 μL of lipid-soluble scintillation solution was added. The mixture was kept in the dark for more than 30 min, and the radioactivity intensity was determined by counting. […] Two replicate tubes were made for each experiment of compound, and two separate experiments were performed.
Two tubes were tested for each concentration and two independent tests were performed for each compound.
Data set [2] concerns the target T1, H1 receptor (Homo sapiens, UniProt P35367).
T1 construct: expressed in transfected cells; host or cells: HEK-293
Briefly: H1 receptor binding test. The note with it: 1 nM [3H]pyrilamine, HEK-293 cell membrane homogenate; read-out: Affinity of the compound for H1 receptor (Ki value, nM) H1. The protocol: Non-specific binding was determined in the presence of 1 μM pyrilamine.

Data set [3] has as its system mouse schizophrenic model induced by Apo. Description: Apomorphine model experiment (stereotyped motion). Type of data set: in vivo, C57BL/6 mice. Conditions: for ED50: Mus musculus, single oral administration, apomorphine 5 mg/kg i.p., mice, read-out: Inhibition of total stereotyped motion of mouse schizophrenic model induced by Apo., ED50; for Effect (ED50) on the stereotyped behavior of mice compared with cariprazine: apomorphine model, oral. The protocol: 1. Apomorphine Model Experiment
1) 4 point, continuous biting;
2) 3 point, the cage lid was bit at least once during observation;
3) 2 point, the cage chassis or cage wall was licked at least once during observation;
4) 1 point, compulsive sniffing and bowing activities were appeared;
5) 0 point, no of the above activities.
The total score of the mice was calculated for the above behaviors within 70 min, and the improvement rate was calculated according to the following formula.
During the experiment, the clinical response symptoms of the animals were recorded.
All data were expressed as x±SEM, processed with the 11.5 software statistical package, and t-test and one-way analysis of variance were performed for the comparison of the means of the two samples, with P<0.05 as a significant difference.

Data set [4] deals with mouse model of schizophrenia induced by MK-801. Description: MK-801 model experiment (open-field motion). Conditions: for Improvement rate on open-field motion of mice compared with cariprazine: MK-801 model, oral; for ED50: Mus musculus, 1.5 h, read-out: Effect on the total distance of open-field motion in mouse model of schizophrenia induced by MK-801, ED50.
Procedure: An acute mode of administration was used in the experiment. The experimental mice were randomly divided into groups and put into a spontaneous activity box to adapt for 5-10 minutes before the experiment. […] The data were expressed as mean±standard error (Mean±SEM), and were analyzed using GraphPad Prism software, and data analysis was performed using t-test, and a significant difference was considered to exist when P<0.05.
Data set [5] deals with T2, human recombinant D3 receptor (Homo sapiens, UniProt P35462).
T2 construct: expressed in transfected cells; host or cells: CHO
T2 sequence (P35462 whole entry): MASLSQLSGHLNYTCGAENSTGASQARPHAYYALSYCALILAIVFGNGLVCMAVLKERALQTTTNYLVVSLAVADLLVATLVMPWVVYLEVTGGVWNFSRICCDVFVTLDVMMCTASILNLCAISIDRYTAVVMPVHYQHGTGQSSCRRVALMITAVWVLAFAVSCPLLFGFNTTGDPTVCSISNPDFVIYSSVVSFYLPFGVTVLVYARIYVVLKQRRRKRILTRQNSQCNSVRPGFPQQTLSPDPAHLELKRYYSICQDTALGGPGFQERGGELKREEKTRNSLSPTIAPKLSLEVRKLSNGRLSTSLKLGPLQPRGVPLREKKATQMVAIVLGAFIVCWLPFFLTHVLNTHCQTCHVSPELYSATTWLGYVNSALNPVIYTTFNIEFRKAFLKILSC
Briefly: Dopamine D3 receptor binding test. The note with it: [3H]methyl-spiperone 0.3 nM, human recombinant D3 receptor expressed in CHO cells; read-out: Affinity of the compound for each receptor (Ki value, nM) D3. The protocol: Dopamine D3 Receptor Binding Test
[^3H]methyl-spiperone (0.3 nM) was used as the ligand, and (+)-butaclamol (10 μM) was used to determine the non-specific binding, and the binding assay was performed on human recombinant D3 receptor (expressed in CHO cells).

Data set [6] addresses T3, 5-HT2A receptor (Homo sapiens, UniProt P28223).
T3 construct: expressed in transfected cells; host or cells: HEK293
Briefly: 5-HT2A receptor binding test. The text has this:
5-HT2A Receptor Binding Test
Beckman LS-6500 multifunctional liquid scintillation counter.
Tris-HCl reaction buffer (pH 7.7) was used to resuspend in the experiment.

Data set [7] is described as follows: Acute toxicity experiment, single oral administration. The note with it: ICR, mouse, in vivo. The protocol: Acute Toxicity Experiments of the Compound
2) Solvent preparation: An appropriate amount of Tween-80 was weighed and diluted with deionized water to a concentration of […] (g/v) Tween-80.
4) Route of administration: The administration route of the test samples and the solvent control group (0.5% Tween-80) was oral administration.
5) Frequency of administration: Single administration, fasting overnight before administration.
6) Dosing capacity: 20 mL/kg.
[…]; the observation period was 2 to 6 days, twice a day, once in the morning and once in the afternoon.
The observation content includes, but is not limited to, general condition, behavioral activity, gait posture, eye, mouth, nose, gastrointestinal tract, skin hair, urogenital tract.
Body weight data were expressed as mean±standard deviation, and were compared between groups using Levene's test and one-way ANOVA. If there were differences, Dunnet t test was used.
In the MTD test, the tolerance of the animals to the drug was investigated, and the maximum tolerated dose was reached when the animals were dying frequently.

[8] abbreviates: [3H]-Ketanserin, 5-HT2A receptor expressed in HEK293 cells, read-out: Affinity of the compound for each receptor (Ki value, nM) 5-HT2A.
Setting [9] is: single oral administration, ICR mice, read-out: MTD (maximum tolerance).

T3 sequence (P28223 whole entry): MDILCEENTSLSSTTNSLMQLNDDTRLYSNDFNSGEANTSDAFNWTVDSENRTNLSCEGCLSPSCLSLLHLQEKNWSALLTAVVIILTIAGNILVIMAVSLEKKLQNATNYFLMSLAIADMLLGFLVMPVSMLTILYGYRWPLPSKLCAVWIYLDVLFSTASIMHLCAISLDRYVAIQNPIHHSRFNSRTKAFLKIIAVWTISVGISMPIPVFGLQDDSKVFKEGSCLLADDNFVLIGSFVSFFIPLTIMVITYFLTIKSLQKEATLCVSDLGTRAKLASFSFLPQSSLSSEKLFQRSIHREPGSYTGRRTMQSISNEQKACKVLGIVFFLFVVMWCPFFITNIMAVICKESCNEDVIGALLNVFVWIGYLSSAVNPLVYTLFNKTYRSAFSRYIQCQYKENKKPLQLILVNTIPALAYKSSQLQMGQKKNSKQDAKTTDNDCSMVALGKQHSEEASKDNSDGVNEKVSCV
T1 sequence (P35367 whole entry): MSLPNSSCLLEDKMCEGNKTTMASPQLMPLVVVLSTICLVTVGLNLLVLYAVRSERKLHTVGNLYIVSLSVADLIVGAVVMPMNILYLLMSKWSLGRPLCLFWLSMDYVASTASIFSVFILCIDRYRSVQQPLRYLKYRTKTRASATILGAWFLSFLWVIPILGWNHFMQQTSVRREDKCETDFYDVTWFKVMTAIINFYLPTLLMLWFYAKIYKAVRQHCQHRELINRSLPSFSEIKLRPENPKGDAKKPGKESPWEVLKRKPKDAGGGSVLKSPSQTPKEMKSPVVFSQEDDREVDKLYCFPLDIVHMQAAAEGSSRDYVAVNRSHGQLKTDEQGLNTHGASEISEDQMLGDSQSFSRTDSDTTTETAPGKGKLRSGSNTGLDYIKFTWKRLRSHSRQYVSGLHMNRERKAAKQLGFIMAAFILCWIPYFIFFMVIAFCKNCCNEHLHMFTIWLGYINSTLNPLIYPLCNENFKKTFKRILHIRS
Sequence of D2 receptor (P14416 whole entry): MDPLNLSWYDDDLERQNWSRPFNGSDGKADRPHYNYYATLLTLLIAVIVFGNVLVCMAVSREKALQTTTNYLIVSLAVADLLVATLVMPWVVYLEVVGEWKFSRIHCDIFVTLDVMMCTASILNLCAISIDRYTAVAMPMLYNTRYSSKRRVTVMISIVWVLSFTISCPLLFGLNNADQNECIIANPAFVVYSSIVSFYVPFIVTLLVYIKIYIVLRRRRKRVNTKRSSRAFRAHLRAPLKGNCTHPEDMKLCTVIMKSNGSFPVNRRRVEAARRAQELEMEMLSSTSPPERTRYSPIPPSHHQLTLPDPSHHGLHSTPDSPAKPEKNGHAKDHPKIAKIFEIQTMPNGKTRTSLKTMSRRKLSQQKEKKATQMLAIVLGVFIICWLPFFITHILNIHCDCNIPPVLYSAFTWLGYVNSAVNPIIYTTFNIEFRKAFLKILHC

Usually Ki stands for the dissociation constant of the complex between target and ligand, obtained from inhibition or displacement. In general, ED50 refers to the midpoint of the dose-response relation. For `CC(=O)N[C@H]1CC[C@H](CCN2CCN(c3cc(-c4cccs4)cc(N4CCOCC4)n3)CC2)CC1` [VI-1, N-(trans-4-(2-(4-(6-morpholino-4-(thiophen-2-yl)pyridin-2-yl)piperazin-1-yl)ethyl)cyclohexyl)acetamide], the Ki was 0.8 nM in data set [1], greater than 1000 nM in data set [2], 0.05 nM in data set [5] and 1.6 nM in data set [6] (setting [8]). Moreover, the results for the ED50 in data set [3] and in data set [4] were 0.55 mg/kg and 0.12 mg/kg, respectively. Moreover, in data set [4], the “Improvement rate on open-field motion of mice compared with cariprazine” value (shortened to “Improvement rate … compared with cariprazine”) was “better”.
Take `CCOC(=O)N[C@H]1CC[C@H](CCN2CCN(c3cc(-c4ccccc4)cc(N4CCOCC4)n3)CC2)CC1` [Compound I-3, ethyl ((trans)-4-(2-(4-(6-morpholino-4-phenylpyridin-2-yl)piperazin-1-yl)ethyl)cyclohexyl)carbamate]: the Ki was 2.5 nM in data set [1], greater than 1000 nM in data set [2], 0.08 nM in data set [5] and 2.1 nM in data set [6]. For the same molecule, the figures for the ED50 in data set [3] and in data set [4] were 0.19 mg/kg and 0.33 mg/kg, respectively. Also, in data set [3], the “Effect (ED50) on the stereotyped behavior of mice compared with cariprazine” value (“Effect (ED50) … compared with cariprazine” below) is recorded as “better effects”. In data set [7] (setting [9]), the MTD is no less than 400 mg/kg.
With `CN(C)C(=O)N[C@H]1CC[C@H](CCN2CCN(c3cc(-c4ccc[nH]4)cc(N4CCOCC4)n3)CC2)CC1` [VII-4, 1,1-dimethyl-3-(trans-4-(2-(4-(6-morpholino-4-(1H-pyrrol-2-yl)pyridin-2-yl)piperazin-1-yl)ethyl)cyclohexyl)urea], the Ki is 0.6 nM in data set [1], greater than 1000 nM in data set [2], 0.03 nM in data set [5] and 1.1 nM in data set [6] (setting [8]). Further, the results for the ED50 in data set [3] and in data set [4] were 0.2 mg/kg and 0.25 mg/kg, respectively. The “Effect (ED50) … compared with cariprazine” value in data set [3] is “better effects”. For the same molecule, the MTD in data set [7] (setting [9]) was no less than 400 mg/kg.
As to `O=C(N[C@H]1CC[C@H](CCN2CCN(c3cc(-c4ccc(F)cc4)cc(N4CCOCC4)n3)CC2)CC1)c1cccnc1` [II-2, N-(trans-4-(2-(4-(4-(4-fluorophenyl)-6-morpholinopyridin-2-yl)piperazin-1-yl)ethyl)cyclohexyl)nicotinamide], the Ki was 0.9 nM in data set [1], greater than 1000 nM in data set [2], 0.07 nM in data set [5] and 2.4 nM in data set [6] (setting [8]). In addition, the values for the ED50 in data set [3] and in data set [4] were 0.08 mg/kg and 0.07 mg/kg, respectively. In addition, the “Effect (ED50) … compared with cariprazine” value in data set [3] is reported as “better effects”. Besides, in data set [4], the “Improvement rate … compared with cariprazine” value is reported as “better”. Moreover, in data set [7] (setting [9]), the MTD is no less than 400 mg/kg.
Consider `O=C(N[C@H]1CC[C@H](CCN2CCN(c3cc(-c4cccs4)cc(N4CCOCC4)n3)CC2)CC1)N1CCCC1` [VI-5, N-(trans-4-(2-(4-(6-morpholino-4-(thiophen-2-yl)pyridin-2-yl)piperazin-1-yl)ethyl)cyclohexyl)tetrahydropyrrole-1-carboxamide], for which the Ki was 1 nM in data set [1], greater than 1000 nM in data set [2], 0.07 nM in data set [5] and 1.1 nM in data set [6] (setting [8]). The 50% effective dose (ED50) came out at 0.16 mg/kg in data set [3] and 0.08 mg/kg in data set [4]. Moreover, the “Effect (ED50) … compared with cariprazine” value in data set [3] is “better effects”. Besides, the MTD in data set [7] (setting [9]) was greater than 2000 mg/kg.
For the molecule `O=C(N[C@H]1CC[C@H](CCN2CCN(c3cc(-c4cccnc4)cc(N4CCOCC4)n3)CC2)CC1)c1ccco1` [IV-2], the Ki in data set [1] is 0.9 nM; in data set [2], greater than 1000 nM; in data set [5], 0.03 nM; in data set [6] (setting [8]) it was 1.1 nM. The ED50 in data set [3] stood at 0.1 mg/kg; in data set [4], 0.05 mg/kg. The “Effect (ED50) … compared with cariprazine” value in data set [3] was “better effects”. For the same molecule, the “Improvement rate … compared with cariprazine” value in data set [4] was “better”. Further, the MTD in data set [7] (setting [9]) was greater than 2000 mg/kg.
On to `CCC(=O)N[C@H]1CC[C@H](CCN2CCN(c3cc(-c4ccc[nH]4)cc(N4CCOCC4)n3)CC2)CC1` [VII-1, N-(trans-4-(2-(4-(6-morpholino-4-(1H-pyrrol-2-yl)pyridin-2-yl)piperazin-1-yl)ethyl)cyclohexyl)propionamide], for which the Ki in data set [1] came to 4.5 nM; in data set [2] it was 460 nM; in data set [5], 0.28 nM; in data set [6] (setting [8]), 3.2 nM.
As to `CN(C)C(=O)N[C@H]1CC[C@H](CCN2CCN(c3cc(-c4cccs4)cc(N4CCOCC4)n3)CC2)CC1` [VI-4, 1,1-dimethyl-3-(trans-4-(2-(4-(6-morpholino-4-(thiophen-2-yl)pyridin-2-yl)piperazin-1-yl)ethyl)cyclohexyl)urea], the Ki in data set [1] is 2 nM; in data set [2], 590 nM; in data set [5] it was 0.1 nM; in data set [6] (setting [8]) it was 0.9 nM.
In the case of `O=C(N[C@H]1CC[C@H](CCN2CCN(c3cc(-c4ccccc4)cc(N4CCOCC4)n3)CC2)CC1)c1ccco1` [Compound I-6, N-((trans)-4-(2-(4-(6-morpholino-4-phenylpyridin-2-yl)piperazin-1-yl)ethyl)cyclohexyl)furan-2-carboxamide], the Ki is 0.14 nM in data set [1], greater than 1000 nM in data set [2], 0.02 nM in data set [5] and 1 nM in data set [6] (setting [8]). Besides, the ED50 in data set [3] stood at 0.43 mg/kg; in data set [4], 0.2 mg/kg. Besides, the MTD in data set [7] (setting [9]) was greater than 2000 mg/kg.
On to `CCCN(C)C(=O)N[C@H]1CC[C@H](CCN2CCN(c3cc(-c4ccc(F)cc4)cc(N4CCOCC4)n3)CC2)CC1` [II-6, 3-(trans-4-(2-(4-(4-(4-fluorophenyl)-6-morpholinopyridin-2-yl)piperazin-1-yl)ethyl)cyclohexyl)-1-methyl-1-propylurea], for which the Ki is 1 nM in data set [1], greater than 1000 nM in data set [2], 0.04 nM in data set [5] and 1.3 nM in data set [6] (setting [8]). In addition, the ED50 in data set [3] is 0.13 mg/kg; in data set [4] it was 0.1 mg/kg. The “Effect (ED50) … compared with cariprazine” value in data set [3] was “better effects”. In data set [4], the “Improvement rate … compared with cariprazine” value is given as “better”.
`O=C(N[C@H]1CC[C@H](CCN2CCN(c3cc(-c4ccco4)cc(N4CCOCC4)n3)CC2)CC1)N1CCOCC1` [Compound V-5, N-(trans-4-(2-(4-(4-(furan-2-yl)-6-morpholinopyridin-2-yl)piperazin-1-yl)ethyl)cyclohexyl)morpholine-4-carboxamide]: the Ki in data set [1] is 1 nM; in data set [2] it was greater than 1000 nM; in data set [5], 0.04 nM; in data set [6] (setting [8]) it was 2.9 nM. Moreover, the values for the ED50 in data set [3] and in data set [4] were 0.78 mg/kg and 0.51 mg/kg, respectively. In addition, the MTD in data set [7] (setting [9]) is no less than 400 mg/kg.
As for `CC(=O)N[C@H]1CC[C@H](CCN2CCN(c3cc(-c4ccco4)cc(N4CCOCC4)n3)CC2)CC1` [Compound V-1, N-(trans-4-(2-(4-(4-(furan-2-yl)-6-morpholinopyridin-2-yl)piperazin-1-yl)ethyl)cyclohexyl)acetamide], the Ki was determined as 8.1 nM in data set [1], 530 nM in data set [2], 0.7 nM in data set [5] and 1.6 nM in data set [6] (setting [8]).
`O=C(N[C@H]1CC[C@H](CCN2CCN(c3cc(-c4ccc(F)cc4)cc(N4CCOCC4)n3)CC2)CC1)c1ccccc1` [II-1, N-(trans-4-(2-(4-(4-(4-fluorophenyl)-6-morpholinopyridin-2-yl)piperazin-1-yl)ethyl)cyclohexyl)benzamide]: the Ki was 1.7 nM in data set [1], 670 nM in data set [2], 0.2 nM in data set [5] and 2.3 nM in data set [6] (setting [8]).
Consider `CN(C)C(=O)N[C@H]1CC[C@H](CCN2CCN(c3cccc(Cl)c3Cl)CC2)CC1` [Cariprazine, cariprazine, reference compound], for which the figures for the ED50 in data set [3] and in data set [4] were 0.3 mg/kg and 0.15 mg/kg, respectively. The same molecule yielded an MTD in data set [7] of 320 mg/kg.
